This is an account of results in ChEMBL document CHEMBL5030512 (J Med Chem, 2021).

The test system of series [1] is HCT-116. Put plainly: Cytotoxicity against human HCT-116 cells assessed as reduction in cell viability measured after 48 hrs by SRB assay. In kind it is functional, cell-based. The settings on record: HCT-116, 48 h. In general terms: The SRB assay estimates cell density from bound dye.
In a further series the test system is COS-7. Nature of the series: Inhibition of GLUT1 in African green monkey COS-7 cells assessed as reduction in 2-NBDG uptake at 50 to 100 uM incubated for 90 mins by fluorescence microplate reader analysis. Conditions: Chlorocebus aethiops, dose 50-100 µM. In kind it is cell-based.
Series [2] deals with HT-29. Nature of the series: Cytotoxicity against human HT-29 cells assessed as reduction in cell viability treated with 5 mM GSH measured after 48 hrs in presence of 5-FU by SRB assay. The settings on record: HT-29, 48 h. Format: functional, cell-based.
The test system of series [3] is HCT-116. Nature of the series: Cytotoxicity against human HCT-116 cells assessed as reduction in cell viability measured after 48 hrs in presence of 5 mM GSH by SRB assay. In kind it is functional, cell-based. The settings on record: HCT-116, 48 h.
The test system of series [4] is HT-29. Put plainly: Cytotoxicity against human HT-29 cells assessed as reduction in cell viability measured after 48 hrs in presence of 5-FU by SRB assay. The settings on record: HT-29, 48 h. Format: functional, cell-based.
Series [5] relates to HCT-116. Put plainly: Cytotoxicity against human HCT-116 cells assessed as reduction in cell viability measured after 48 hrs in presence of 5-FU by SRB assay. Format: functional, cell-based. The settings on record: HCT-116, 48 h.
In series [6] the test system is HCT-116. Nature of the series: Cytotoxicity against human HCT-116 cells assessed as reduction in cell viability treated with 5 mM GSH measured after 48 hrs in presence of 5-FU by SRB assay. In kind it is functional, cell-based. Conditions: HCT-116, 48 h.
Series [7] concerns HT-29. Nature of the series: Cytotoxicity against human HT-29 cells assessed as reduction in cell viability measured after 48 hrs by SRB assay. The settings on record: HT-29, 48 h. Format: functional, cell-based.
Series [8] relates to HT-29. Put plainly: Cytotoxicity against human HT-29 cells assessed as reduction in cell viability measured after 48 hrs in presence of 5 mM GSH by SRB assay. Conditions: HT-29, 48 h. Format: functional, cell-based.
Series [9] can be described thus: Stability of compound at pH >= 7. Format: physicochemical.
Series [10] is described as follows: Stability in human plasma assessed as half life measured upto 48 hrs by RP-HPLC analysis. Format: ADME, cell-free.
Series [11] can be described thus: Stability of compound at pH 4 to 5. In kind it is physicochemical. The settings on record: buffer.
The nature of series [12]: Dissociation constant, pKa of compound. Format: physicochemical.
The nature of series [13]: Drug uptake in BALB/c mouse blood at 50 mg/kg, iv measured after 45 mins by UPLC-MS/MS method. The settings on record: in vivo, 0.75 h. In kind it is ADME, organism-based.
Series [14] can be described thus: Drug metabolism in BALB/c mouse assessed as release of 5-FU in blood at 50 mg/kg, iv measured after 2 hrs by UPLC-MS/MS analysis. The settings on record: in vivo. Format: ADME, organism-based.
Series [15] can be described thus: Biodistribution in BALB/c mouse heart at 50 mg/kg, ip measured after 1 hr. The settings on record: in vivo. Format: ADME, organism-based.
Series [16] can be described thus: Half life of the compound in 5 mM GSH. In kind it is physicochemical.
Series [17] can be described thus: Biodistribution in BALB/c mouse liver at 50 mg/kg, ip measured after 1 hr. In kind it is ADME, organism-based. Conditions: in vivo.
A short description of series [18]: Toxicity in BALB/c mouse xenografted with human colorectal cancer cells assessed as reduction in body weight at 50 mg/kg, ip administered once every 3 days for 3 weeks. Format: organism-based. More on the design: scale not given: the % may be the effect or the level left. Conditions: in vivo, 504 h. Background: Xenograft models place foreign cells or tissue in a host animal.

Series [19] can be described thus: Tmax in BALB/c mouse at 50 mg/kg, ip by LC-MS/MS analysis. In kind it is ADME, organism-based. The settings on record: in vivo.
Series [20] in a line: Biodistribution in BALB/c mouse stomach at 50 mg/kg, ip measured after 1 hr. In kind it is ADME, organism-based. Conditions: in vivo.
Another series has as its system NHDF. Put plainly: Cytotoxicity against NHDF assessed as reduction in cell viability measured after 48 hrs by SRB assay. In kind it is cell-based. The settings on record: Homo sapiens.
Series [21] can be described thus: Drug degradation in 5 uM GSH after 48 hrs. Conditions: read-out: Drug degradation. In kind it is ADME.
A short description of series [22]: Drug uptake in BALB/c mouse blood at 50 mg/kg, iv measured after 4 hrs by UPLC-MS/MS method. Conditions: in vivo. In kind it is ADME, organism-based.
Series [23] can be described thus: Drug uptake in BALB/c mouse blood at 50 mg/kg, iv measured after 30 mins by UPLC-MS/MS method. In kind it is ADME, organism-based. The settings on record: in vivo, 0.5 h.
For series [24], the system named is Colon cancer cell line. Nature of the series: Antitumour activity against human colorectal cancer cells xenografted in BALB/c mouse assessed as tumour suppression at 50 mg/kg, ip administered once every 3 days for 3 weeks. In kind it is functional, organism-based.
Series [25] is described as follows: Drug metabolism in 5 mM GSH assessed as 5-FU release after 48 hrs. In kind it is ADME.
Series [26] in a line: Biodistribution in BALB/c mouse colon assessed as 5-FU release at 50 mg/kg, ip measured after 1 hr. In kind it is ADME, organism-based. The settings on record: in vivo.
Series [27] is described as follows: Biodistribution in BALB/c mouse kidney assessed as 5-FU release at 50 mg/kg, ip measured after 1 hr. In kind it is ADME, organism-based. Conditions: in vivo.
The nature of series [28]: Biodistribution in BALB/c mouse stomach assessed as 5-FU release at 50 mg/kg, ip measured after 1 hr. Format: ADME, organism-based. The settings on record: in vivo.
A short description of series [29]: Biodistribution in BALB/c mouse colon at 50 mg/kg, ip measured after 1 hr. Format: ADME, organism-based. Conditions: in vivo.
Series [30] concerns Colon cancer cell line. Put plainly: Synergistic antitumour activity against human colorectal cancer cells xenografted in BALB/c mouse assessed as reduction in tumour size at 30 mg/kg, ip administered once every 3 days for 3 weeks in presence of 10 mg/kg 5-FU. In kind it is functional, organism-based.
Series [31] in a line: Biodistribution in BALB/c mouse kidney at 9.5 mg/kg, ip measured after 1 hr. Format: ADME, organism-based. Conditions: in vivo.
Series [32] can be described thus: Biodistribution in BALB/c mouse stomach at 9.5 mg/kg, ip measured after 1 hr. In kind it is ADME, organism-based. The settings on record: in vivo.
Series [33] can be described thus: Biodistribution in BALB/c mouse spleen at 9.5 mg/kg, ip measured after 1 hr. Format: ADME, organism-based. Conditions: in vivo.

Activity calls are given as the source filed them.

One may read the IC50 as the point on the concentration scale where inhibition reaches its midpoint. Turning to `O=C(CCc1ccc(O)cc1)c1c(O)cc(OCCOCCOCCS)cc1O[C@@H]1O[C@H](CO)[C@@H](O)[C@H](O)[C@H]1O`, the IC50 in the series on HCT-116 [1] is above 100 µM; with HT-29 [2] it was 8.58 µM; in the series on HCT-116 [3], above 100 µM; in the series with HT-29 [4], 21 µM; with HCT-116 [5], 21.9 µM; in the series with HCT-116 [6], 13.6 µM. Also, the half-maximal inhibitory concentration (IC50) in the series with HT-29 [7] and in the series with HT-29 [8] was above 100 µM in each case. Moreover, the inhibition result in the series on COS-7 is “inactive”.
For the molecule `O=C(CCCCCN1C(=O)CC(SCCOCCOCCOc2cc(O)c(C(=O)CCc3ccc(O)cc3)c(O[C@@H]3O[C@H](CO)[C@@H](O)[C@H](O)[C@H]3O)c2)C1=O)OCn1cc(F)c(=O)[nH]c1=O` (some centres not stated), the IC50 in the series with HCT-116 [1] is 97.4 µM; with HCT-116 [3], above 100 µM; in the series on HT-29 [7] it was above 100 µM; in the series on HT-29 [8], 93.6 µM.
By half-life is commonly meant the time needed for the level to fall by half in the phase considered. In general, pKa refers to the negative logarithm of the acid dissociation constant. For `O=C(CCCc1cn(CCOCCOCCOc2cc(O)c(C(=O)CCc3ccc(O)cc3)c(O)c2)nn1)OCn1cc(F)c(=O)[nH]c1=O`, the Stability entry is reported as “Unstable” in series [9] and “Stable” in series [11]. Besides, the results for the IC50 in the series with HCT-116 [1] and in the series on HT-29 [7] were above 100 µM and 85 µM, respectively. Also, the half-life in series [10] was 3.6 h. Besides, the pKa in series [12] was found to be 8.5.
For orientation: Tmax means the time from dosing to the highest level. As for `O=C(CCCSSCCOCCOCCOc1cc(O)c(C(=O)CCc2ccc(O)cc2)c(O)c1)OCn1cc(F)c(=O)[nH]c1=O`, the Drug uptake result in series [13] was “Active”; in series [15], “Active”; in series [17], “Active”; in series [20], “Active”; in series [22] it was “Active”; in series [23] it was “Not Active”. Moreover, the Drug uptake result in series [26], in series [27], in series [28] and in [29] was “Active” in each case. Further, the Drug metabolism entry is “Metabolite_Detected” in series [14] and “Dose-Dependent Effect” in series [25]. In series [16], this molecule gave a t1/2 of 4 h. For the same molecule, the IC50 was 21.2 µM in the series with HCT-116 [1]; 90 µM in the series on NHDF; 10.5 µM in the series on HCT-116 [3]; 19.6 µM with HT-29 [7]; 3.8 µM with HT-29 [8]. The Activity entry in [18] is “Non-Toxic”. Moreover, the half-life in series [10] is 13 h. For the same molecule, in series [19], the Tmax was 0.75 h. Moreover, the degraded at 48 h in series [21] is 30%. Also, the outcome in the series with Colon cancer cell line [24] was Active.
As for `O=C(CCc1ccc(O)cc1)c1c(O)cc(O)cc1O[C@@H]1O[C@H](CO)[C@@H](O)[C@H](O)[C@H]1O`, the inhibition entry with COS-7 is “inactive”.
For `O=C(CCc1ccc(O)cc1)c1c(O)cc(OCCOCCOCCS)cc1O`, the 50% inhibitory concentration (IC50) came to 15.5 µM in the series with HCT-116 [1]; 3.03 µM in the series with HT-29 [2]; 15.9 µM in the series on HCT-116 [3]; 10.3 µM in the series with HT-29 [4]; 10.4 µM in the series with HCT-116 [5]; 8.73 µM in the series with HCT-116 [6]. For the same molecule, the values for the IC50 in the series on HT-29 [7] and with HT-29 [8] were 29.1 µM and 24.2 µM, respectively. Besides, the inhibition entry with COS-7 was “inactive”. For the same molecule, the result with Colon cancer cell line [30] was Active.
`O=C(CCCSSCCOCCOCCOc1cc(O)c(C(=O)CCc2ccc(O)cc2)c(O[C@@H]2O[C@H](CO)[C@@H](O)[C@H](O)[C@H]2O)c1)OCn1cc(F)c(=O)[nH]c1=O`: the IC50 was found to be 54.9 µM in the series on HCT-116 [1], 23.8 µM in the series on HCT-116 [3], 59.8 µM in the series on HT-29 [7] and 8 µM in the series with HT-29 [8].
As to `O=c1[nH]cc(F)c(=O)[nH]1` [FLUOROURACIL], the Drug uptake result in series [31], in [20], in series [32] and in [33] was “Active” each time. For the same molecule, the Activity in [18] came out at 10%. For the same molecule, the concentration for half-maximal inhibition (IC50) with NHDF was 70.4 µM. Besides, the outcome in the series on Colon cancer cell line [24] was Active.
Turning to `O=C(CCCc1cn(CCOCCOCCOc2cc(O)c(C(=O)CCc3ccc(O)cc3)c(O[C@@H]3O[C@H](CO)[C@@H](O)[C@H](O)[C@H]3O)c2)nn1)OCn1cc(F)c(=O)[nH]c1=O`, the IC50 with HCT-116 [1] and with HT-29 [7] was above 100 µM in each case.
Turning to `O=C(CCCCCN1C(=O)CC(SCCOCCOCCOc2cc(O)c(C(=O)CCc3ccc(O)cc3)c(O)c2)C1=O)OCn1cc(F)c(=O)[nH]c1=O` (configuration not stated), the IC50 turned out to be 75 µM in the series with HCT-116 [1], 82.8 µM with HCT-116 [3], 43.7 µM with HT-29 [7] and 86.9 µM in the series with HT-29 [8]. In series [10], the half-life was 0.8 h. In series [12], this molecule registered a pKa of 8.5.
